{
  "source": "patent US4788178A",
  "about": "“Use of gonadoliberin and gonadoliberin agonists for the treatment of climacteric complaints” (Hoechst Aktiengesellschaft, priority 1984, dated 1988)",
  "key": {"[1]": {"system": "parathyroid hormone", "assay": "Action of buserelin to lower parathyroid hormone in blood serum of rats", "format": "in vivo, female Wistar rats", "experimental": "4 groups each containing 5 female Wistar rats were treated with placebo or three different doses (1 ng/kg, 5 ng/kg and 50 ng/kg) of buserelin. An initial blood sample was taken from all animals (initial value). Thereafter, the animals were given an injection of buserelin in physiological sodium chloride solution with the addition of 0.25% Haemaccel^R, and the placebo group was given the same amount of physiological sodium chloride solution with the addition of 0.25% Haemaccel^R. Blood samples were taken after 90 minutes and 240 minutes. The blood serum was investigated for parathyroid hormone. […] Explanation of the FIG. 1: The time course of the PTH level after i.v. administration of 1 ng/kg buserelin (curve 1), 5 ng/kg (curve 2) and 50 ng/kg (curve 3) is shown. […] All measurements are indicated with standard deviation (n=5)."}, "[2]": {"system": "parathyroid hormone", "settings": "after infusion of calcium; similar small doses; cited from earlier work"}, "[3]": {"system": "parathyroid hormone", "assay": "Regulating action of small doses of buserelin on parathyroid hormone in the plasma of rats", "format": "in vivo", "settings": "young female rats with a high level of parathyroid hormone", "excerpt": "Increased levels of parathyroid hormone are found in bone marrow in cases of osteoporosis (Klin. Wochenschr. 62, 129-132, 1984); parathyroid hormone has an osteolytic effect. In young female rats with a high level of parathyroid hormone, small doses of the gonadoliberin agonist buserelin reduced parathyroid hormone in the plasma, although a parathyroid hormone level which has been reduced by infusion of calcium is raised by similar doses of buserelin (see German Patent Application No. P 33 32 329.1). It is possible that this regulating action of buserelin on parathyroid hormone plays a part in the treatment of ostalgia and osteoporosis."}},
  "data": [
    {"smiles": "CCNC(=O)[C@@H]1CCCN1C(=O)[C@H](CCCNC(=N)N)NC(=O)[C@H](CC(C)C)NC(=O)[C@@H](COC(C)(C)C)NC(=O)[C@H](Cc1ccc(O)cc1)NC(=O)[C@H](CO)NC(=O)[C@H](Cc1c[nH]c2ccccc12)NC(=O)[C@H](Cc1cnc[nH]1)NC(=O)[C@@H]1CCC(=O)N1", "note": "[buserelin, [D-Ser(Bu^t)^6]-gonadoliberin-(1-9)-nonapeptide ethylamide]", "values": [
      {"measurement": "dose dependence of the parathyroid hormone lowering effect", "setting": "[1]; 1, 5 and 50 ng/kg i.v., 90 minutes", "value": "best effect being observed at the low doses"},
      {"measurement": "level of parathyroid hormone in blood serum after 90 minutes", "setting": "[1]; i.v. 1 ng/kg, 5 ng/kg and 50 ng/kg buserelin, female Wistar rats, 90 minutes, n=5", "value": "decreased"},
      {"measurement": "level of parathyroid hormone in blood serum after 240 minutes", "setting": "[1]; i.v. 1, 5 and 50 ng/kg, 240 minutes", "value": "initial value had been regained"},
      {"measurement": "parathyroid hormone level previously reduced by infusion of calcium", "setting": "[2]", "value": "raised"},
      {"measurement": "parathyroid hormone in the plasma", "setting": "[3]", "value": "reduced"}
    ]}
  ]
}
